In patent US12312359B2 (Vitae Pharmaceuticals, LLC, priority 2016, dated 2025) one finds EC50 and IC50 data, which are given here for 17 compounds.

Assay [1] deals with human acute monocytic leukemia cell line MV-4-11. Put plainly: Assay 2: cell proliferation assay (ATP quantitation, CellTiter-Glo), MV-4-11. The following applies: MV-4-11 cells. It is filed as cell-based. Summed up:
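Read-out is CellTiter-Glo luminescence quantifying ATP. Compound exposure lasted 72 h at 37° C., 5% CO2, with 1.67×10^4 MV-4-11 cells per well in 10% FBS medium, alongside HL-60 toxicity-control cells.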

Assay [2] addresses T1, biotinylated wild-type menin and MLL-AF9 fusion protein (menin/MLL binding) (Homo sapiens, UniProt O00255).
T1 construct: made in house; host or cells: menin: E. coli; MLL-AF9-FLAG: HEK293 cells, used as cleared lysate
T1 sequence (O00255 1-610): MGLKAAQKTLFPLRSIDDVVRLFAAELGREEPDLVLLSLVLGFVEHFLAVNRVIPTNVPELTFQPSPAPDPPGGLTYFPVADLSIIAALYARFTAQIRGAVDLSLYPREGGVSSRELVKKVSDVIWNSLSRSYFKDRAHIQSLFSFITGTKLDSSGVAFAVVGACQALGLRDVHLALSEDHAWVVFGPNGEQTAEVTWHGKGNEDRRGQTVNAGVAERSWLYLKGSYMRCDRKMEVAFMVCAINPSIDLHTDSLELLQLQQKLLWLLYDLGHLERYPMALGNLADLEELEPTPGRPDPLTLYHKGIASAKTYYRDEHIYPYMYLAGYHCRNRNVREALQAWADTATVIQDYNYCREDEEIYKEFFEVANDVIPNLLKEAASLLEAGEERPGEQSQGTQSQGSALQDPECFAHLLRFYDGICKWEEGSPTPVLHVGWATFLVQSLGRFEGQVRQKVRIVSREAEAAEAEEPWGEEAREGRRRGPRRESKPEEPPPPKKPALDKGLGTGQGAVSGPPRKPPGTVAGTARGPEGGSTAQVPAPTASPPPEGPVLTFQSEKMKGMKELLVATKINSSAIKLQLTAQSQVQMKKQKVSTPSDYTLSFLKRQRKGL
In words: Assay 1: menin/MLL binding AlphaLISA assay, wild-type menin. The following applies: Table 30; column head does not say wild-type or mutated menin. Summed up:
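Compound was preincubated 30 min at room temperature with biotinylated menin (5 nM) and MLL-AF9-FLAG lysate from HEK293 cells, pH 7.4 buffer with 5% DMSO and DTT. Bead-based Alpha signal after 60 min with streptavidin donor and anti-FLAG acceptor beads; four-parameter logistic fit gave IC50.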

In turn, `CC(C)(O)c1ccccc1-c1cc(F)ccc1Oc1cncnc1N1CCC2(CCN(Cc3ccc4[nH]c(=O)[nH]c4c3)C2)C1` (stereo not shown) [Example 63, 5-((7-(5-((5-fluoro-2′-(2-hydroxypropan-2-yl)-[1,1′-biphenyl]-2-yl)oxy)pyrimidin-4-yl)-2,7-diazaspiro[4.4]nonan-2-yl)methyl)-1H-benzo[d]imidazol-2(3H)-one] returned an EC50 in assay [1] (Homo sapiens, MV4-11, 72 h) of less than 100 nM. The IC50 in assay [2] was less than 100 nM.
In assay [1] (Homo sapiens, MV4-11, 72 h), `CC(C)Oc1ncccc1-c1cc(F)ccc1Oc1cncnc1N1CC2(CN(CC3CCOCC3)C2)C1` [Example 162, 2-(5-(4-fluoro-2-(2-isopropoxypyridin-3-yl)phenoxy)pyrimidin-4-yl)-6-((tetrahydro-2H-pyran-4-yl)methyl)-2,6-diazaspiro[3.3]heptane] displayed an EC50 of 100 to 1000 nM. This compound also registered an IC50 in assay [2] of less than 100 nM.
In turn, `CCN(C(=O)c1cc(F)ccc1Oc1cncnc1N1CCC2(CCN(Cc3ccc4c(c3)[nH]c(=O)n4C)C2)C1)C(C)C` (stereo not shown) [Example 107, N-ethyl-5-fluoro-N-isopropyl-2-((4-(7-((1-methyl-2-oxo-2,3-dihydro-1H-benzo[d]imidazol-5-yl)methyl)-2,7-diazaspiro[4.4]nonan-2-yl)pyrimidin-5-yl)oxy)benzamide] yielded an EC50 in assay [1] (Homo sapiens, MV4-11, 72 h) of less than 100 nM. This compound registered an IC50 in assay [2] of less than 100 nM.
Consider `CC(C)N(C(=O)c1cc(F)ccc1Oc1cncnc1N1CC2(CCN(C[C@H]3CC[C@H](NC(=O)OC(C)(C)C)CC3)CC2)C1)C(C)C` [Example 99A, tert-butyl ((1r,4r)-4-((2-(5-(2-(diisopropylcarbamoyl)-4-fluorophenoxy)pyrimidin-4-yl)-2,7-diazaspiro[3.5]nonan-7-yl)methyl)cyclohexyl)carbamate], for which the EC50 in assay [1] (Homo sapiens, MV4-11, 72 h) was less than 100 nM. The IC50 in assay [2] was less than 100 nM.
For `CC(C)n1nccc1-c1cc(F)ccc1Oc1cncnc1N1CCC2(CCN(Cc3ccc4[nH]c(=O)[nH]c4c3)C2)C1` (single isomer, unassigned) [Example 197A, 5-((7-(5-(4-fluoro-2-(1-isopropyl-1H-pyrazol-5-yl)phenoxy)pyrimidin-4-yl)-2,7-diazaspiro[4.4]nonan-2-yl)methyl)-1,3-dihydro-2H-benzo[d]imidazol-2-one], the EC50 in assay [1] (Homo sapiens, MV4-11, 72 h) is less than 100 nM. Besides, in assay [2], the IC50 was less than 100 nM.
Compound `CC(C)c1ncncc1-c1cc(F)ccc1Oc1cncnc1N1CC2(CC(NCc3ccc(C#N)cc3)C2)C1` [Example 152, 4-(((2-(5-(4-fluoro-2-(4-isopropylpyrimidin-5-yl)phenoxy)pyrimidin-4-yl)-2-azaspiro[3.3]heptan-6-yl)amino)methyl) benzonitrile] returned an EC50 in assay [1] (Homo sapiens, MV4-11, 72 h) of less than 100 nM. Further, in assay [2], the IC50 was less than 100 nM.
Consider `CC(C)c1ncncc1-c1cc(F)ccc1Oc1cncnc1N1CCC2(CCN(Cc3ccc4[nH]c(=O)[nH]c4c3)C2)C1` (single isomer, unassigned) [Example 160A, 5-((7-(5-(4-fluoro-2-(4-isopropylpyrimidin-5-yl)phenoxy)pyrimidin-4-yl)-2,7-diazaspiro[4.4]nonan-2-yl)methyl)-1,3-dihydro-2H-benzo[d]imidazol-2-one], for which the EC50 in assay [1] (Homo sapiens, MV4-11, 72 h) was less than 100 nM. This compound also registered an IC50 in assay [2] of less than 100 nM.
As to `CC(C)n1nccc1-c1cc(F)ccc1Oc1cncnc1N1CCC2(CCN(C(=O)C(N)C3CCCCC3)C2)C1` (single isomer, unassigned) [Example 206A, 2-amino-2-cyclohexyl-1-(7-(5-(4-fluoro-2-(1-isopropyl-1H-pyrazol-5-yl)phenoxy)pyrimidin-4-yl)-2,7-diazaspiro[4.4]nonan-2-yl)ethanone], the EC50 in assay [1] (Homo sapiens, MV4-11, 72 h) lay within 100 to 1000 nM. This compound displayed an IC50 in assay [2] of less than 100 nM.
In the same order, the values of `CCN(C(=O)c1cc(F)ccc1Oc1cncnc1N1CC2(CCN(C[C@H]3CC[C@H](NS(=O)(=O)CC)CC3)CC2)C1)C(C)C` [Example 252, N-Ethyl-2-((4-(7-(((1r,4r)-4-(ethylsulfonamido)cyclohexyl)methyl)-2,7-diazaspiro[3.5]nonan-2-yl)pyrimidin-5-yl)oxy)-5-fluoro-N-isopropylbenzamide] are less than 100 nM and less than 100 nM.
In the same order, the values of `Cc1ncc(Oc2ccc(F)cc2-c2ccnn2C(C)C)c(N2CCC3(CCN(Cc4ccc5[nH]c(=O)[nH]c5c4)C3)C2)n1` (stereo not shown) [Example 126, 5-((7-(5-(4-fluoro-2-(1-isopropyl-1H-pyrazol-5-yl)phenoxy)-2-methylpyrimidin-4-yl)-2,7-diazaspiro[4.4]nonan-2-yl)methyl)-1,3-dihydro-2H-benzo[d]imidazol-2-one] are 100 to 1000 nM and less than 100 nM.
In the same order, the values of `N[C@H]1CC[C@H](CCN2CC3(C2)CN(c2ncncc2Oc2ccc(F)cc2-c2cccnc2C2CC2)C3)CC1` [Example 82, (1r,4r)-4-(2-(6-(5-(2-(2-cyclopropylpyridin-3-yl)-4-fluorophenoxy)pyrimidin-4-yl)-2,6-diazaspiro[3.3]heptan-2-yl)ethyl)cyclohexan-1-amine] are 100 to 1000 nM and less than 100 nM.
For the compound `CC(C)N(C(=O)c1cc(F)ccc1Oc1cncnc1N1CCC2(CC(Cc3ccc(F)cc3)N(CCO)C2)C1)C(C)C` (single isomer, unassigned) [Example 26A, 5-fluoro-2-((4-(8-(4-fluorobenzyl)-7-(2-hydroxyethyl)-2,7-diazaspiro[4.4]nonan-2-yl)pyrimidin-5-yl)oxy)-N,N-diisopropylbenzamide], in assay [1] (72 h), the EC50 lay within 100 to 1000 nM. The IC50 in assay [2] is less than 100 nM.
In the case of `CC(C)N(C)Cc1cc(F)ccc1Oc1cncnc1N1CCC2(CCN(Cc3ccc4[nH]c(=O)[nH]c4c3)C2)C1` (stereo not shown) [Example 135, 5-((7-(5-(4-fluoro-2-((isopropyl(methyl)amino)methyl)phenoxy)pyrimidin-4-yl)-2,7-diazaspiro[4.4]nonan-2-yl)methyl)-1,3-dihydro-2H-benzo[d]imidazol-2-one], in assay [1] (Homo sapiens, MV4-11, 72 h), the EC50 is no less than 1000 nM. Besides, the IC50 in assay [2] was less than 100 nM.
In the same order, the values of `C=C(C)c1ccccc1-c1cc(F)ccc1Oc1cncnc1N1CCC2(CCN(Cc3ccc4[nH]c(=O)[nH]c4c3)C2)C1` (stereo not shown) [Example 161, 5-((7-(5-((5-fluoro-2′-(prop-1-en-2-yl)-[1,1′-biphenyl]-2-yl)oxy)pyrimidin-4-yl)-2,7-diazaspiro[4.4]nonan-2-yl)methyl)-1,3-dihydro-2H-benzo[d]imidazol-2-one] are less than 100 nM and less than 100 nM.
In the same order, the values of `CCN(C(=O)C(C)C)c1cc(F)ccc1Oc1cncnc1N1CC2(CN(C(=O)C3Cc4ccc(Br)cc4C3)C2)C1` (stereo not shown) [Example 120, N-(2-((4-(6-(5-bromo-2,3-dihydro-1H-indene-2-carbonyl)-2,6-diazaspiro [3.3]heptan-2-yl)pyrimidin-5-yl)oxy)-5-fluorophenyl)-N-ethylisobutyramide] are less than 100 nM and less than 100 nM.
In the same order, the values of `CC(C)N(C)C(=O)c1cc(F)ccc1Oc1cncnc1N1CC2(CCN(C[C@H]3CC[C@H](NC(=O)OC(C)(C)C)CC3)CC2)C1` [Example 94, tert-butyl ((1r,4r)-4-((2-(5-(4-fluoro-2-(isopropyl(methyl)carbamoyl)phenoxy)pyrimidin-4-yl)-2,7-diazaspiro[3.5]nonan-7-yl)methyl)cyclohexyl) carbamate] are 100 to 1000 nM and less than 100 nM.
Regarding `CC(C)c1ccccc1-c1cc(F)ccc1Nc1cncnc1N1CC2(CN(CC3(O)CCCCC3)C2)C1` [Example 242, 1-((6-(5-((5-fluoro-2′-isopropyl-[1,1′-biphenyl]-2-yl)amino)pyrimidin-4-yl)-2,6-diazaspiro [3.3]heptan-2-yl)methyl) cyclohexan-1-ol], in assay [1] (Homo sapiens, MV4-11, 72 h), the EC50 lay within 100 to 1000 nM. The compound also came in with an IC50 in assay [2] of less than 100 nM.
